Drawing on US6127377A, “Vinca alkaloid antimitotic halogenated derivatives” (Adir et Compagnie, priority 1997, dated 2000), this text covers IC50 for three compounds.

Each structure is given as a SMILES string.

This assay concerns tubulin. Put plainly: inhibition of the polymerization of tubulin into microtubules, followed by changes in optical density (Weisenberg method). The class given is biochemical. Conditions: read-out: IC50, concentration of compound which brings about a 50% inhibition of the polymerization of tubulin into microtubules. An excerpt:
This property was confirmed by measuring the inhibition of the polymerization of tubulin into microtubules in the presence of the compounds of the invention, according to the method described by R. C. Weisenberg (Science 177, 1196-7, 1972). The results are expressed in terms of IC50, which corresponds to the concentration of compound which brings about a 50% inhibition of the polymerization. This phenomenon is readily monitored and quantified by means of the changes in optical density.
As to `CC[C@]12C=CCN3CC[C@@]4(c5cc([C@@]6(C(=O)OC)C[C@H]7CN(CCc8c6[nH]c6ccccc86)CC(F)(C(C)Cl)C7)c(OC)cc5N(C)[C@H]4[C@@](O)(C(=O)OC)[C@@H]1OC(C)=O)[C@@H]32` (stereo partly drawn) [Example 3, 20'-chloro-4'-deoxy-4'-fluorovinblastine], the IC50 was 1540 nM.

Regarding `CC[C@]12C=CCN3CC[C@@]4(c5cc([C@@]6(C(=O)OC)C[C@@H]7CC(C(C)Cl)CN(CCc8c6[nH]c6ccccc86)C7)c(OC)cc5N(C)[C@H]4[C@@](O)(C(=O)OC)[C@@H]1OC(C)=O)[C@@H]32` (stereo partly drawn) [Example 1, 20'-chloro-4'-deoxyvinblastine], the IC50 was 1990 nM.

Take `CCC1=C[C@@H]2CN(C1)Cc1c([nH]c3ccccc13)[C@@](C(=O)OC)(c1cc3c(cc1OC)N(C)[C@H]1[C@@](O)(C(=O)OC)[C@H](OC(C)=O)[C@]4(CC)C=CCN5CC[C@]31[C@@H]54)C2` [Vinorelbine, reference compound]: the IC50 stood at 1700 nM.
